Measured values from publication PMC3145970, “Specific CLK Inhibitors from a Novel Chemotype for Regulation of Alternative Splicing” (Chemistry & Biology, 2011).
Read-outs that look alike come from different tables or passages of the source.

How the values were obtained:
Test in all cases: Thermal stability shift assay
Format in all cases: binding
PKD2 = target: T1, PKD2 (Homo sapiens, UniProt Q9BZL6); conditions: read-out: Tm shift PKD2
T1 sequence (Q9BZL6 1-878): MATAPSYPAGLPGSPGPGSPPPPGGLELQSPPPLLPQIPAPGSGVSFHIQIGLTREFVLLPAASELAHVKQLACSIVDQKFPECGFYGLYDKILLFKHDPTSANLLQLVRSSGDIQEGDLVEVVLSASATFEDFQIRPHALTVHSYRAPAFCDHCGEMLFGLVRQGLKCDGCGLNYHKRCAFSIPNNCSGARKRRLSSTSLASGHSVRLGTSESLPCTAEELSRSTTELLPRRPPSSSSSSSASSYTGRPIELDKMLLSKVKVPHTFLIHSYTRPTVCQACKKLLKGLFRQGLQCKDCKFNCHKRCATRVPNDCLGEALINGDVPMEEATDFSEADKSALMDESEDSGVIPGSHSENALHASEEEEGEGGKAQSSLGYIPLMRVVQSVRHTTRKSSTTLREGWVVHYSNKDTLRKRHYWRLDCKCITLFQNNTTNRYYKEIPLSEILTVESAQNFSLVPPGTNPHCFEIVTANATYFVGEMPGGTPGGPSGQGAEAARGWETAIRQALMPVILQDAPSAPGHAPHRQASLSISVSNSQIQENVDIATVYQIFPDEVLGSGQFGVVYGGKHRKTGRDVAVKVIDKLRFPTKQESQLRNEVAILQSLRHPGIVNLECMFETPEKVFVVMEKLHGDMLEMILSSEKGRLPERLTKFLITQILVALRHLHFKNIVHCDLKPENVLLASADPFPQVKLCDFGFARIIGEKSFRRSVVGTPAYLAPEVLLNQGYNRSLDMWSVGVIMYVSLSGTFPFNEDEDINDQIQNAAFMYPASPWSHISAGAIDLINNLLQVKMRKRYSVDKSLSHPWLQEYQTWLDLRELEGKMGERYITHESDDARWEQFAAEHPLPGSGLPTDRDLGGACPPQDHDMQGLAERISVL
Experimental: (§1) Thermal denaturation experiments were carried out in an Mx3005p real-time PCR machine (Agilent) using a protein concentration of 2 μM and an inhibitor concentration of 10 μM. Samples were buffered in 10 mM HEPES (pH 7.5), 500 mM NaCl and a 1:1000 dilution of SyproOrange (Invitrogen). The assay and data evaluation were carried out as described ([Bullock et al., 2005])

AAK1 = AAK1 (Homo sapiens, UniProt Q2M2I8); conditions: read-out: Tm shift AAK1
Experimental: as §1

VRK1 = target: T2, VRK1 (Homo sapiens, UniProt Q99986); conditions: read-out: Tm shift VRK1
T2 sequence (Q99986 1-396): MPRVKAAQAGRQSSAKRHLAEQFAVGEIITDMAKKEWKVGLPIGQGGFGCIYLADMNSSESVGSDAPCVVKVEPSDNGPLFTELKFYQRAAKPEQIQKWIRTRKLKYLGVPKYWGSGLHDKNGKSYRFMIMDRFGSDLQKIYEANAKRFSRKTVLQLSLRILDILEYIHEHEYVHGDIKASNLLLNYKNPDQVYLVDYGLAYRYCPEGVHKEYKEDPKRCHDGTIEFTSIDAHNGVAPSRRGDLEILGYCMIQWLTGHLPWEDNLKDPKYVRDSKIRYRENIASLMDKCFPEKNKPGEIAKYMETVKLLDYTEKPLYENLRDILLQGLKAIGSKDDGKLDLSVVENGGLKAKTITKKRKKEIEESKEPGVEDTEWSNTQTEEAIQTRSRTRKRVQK
Experimental: as §1

IKKb = target: T3, IKKb (Homo sapiens, UniProt O14920); conditions: read-out: Tm shift IKKb
T3 construct: purchased in-house (SGC Oxford thermal shift panel)
T3 sequence (O14920 1-756): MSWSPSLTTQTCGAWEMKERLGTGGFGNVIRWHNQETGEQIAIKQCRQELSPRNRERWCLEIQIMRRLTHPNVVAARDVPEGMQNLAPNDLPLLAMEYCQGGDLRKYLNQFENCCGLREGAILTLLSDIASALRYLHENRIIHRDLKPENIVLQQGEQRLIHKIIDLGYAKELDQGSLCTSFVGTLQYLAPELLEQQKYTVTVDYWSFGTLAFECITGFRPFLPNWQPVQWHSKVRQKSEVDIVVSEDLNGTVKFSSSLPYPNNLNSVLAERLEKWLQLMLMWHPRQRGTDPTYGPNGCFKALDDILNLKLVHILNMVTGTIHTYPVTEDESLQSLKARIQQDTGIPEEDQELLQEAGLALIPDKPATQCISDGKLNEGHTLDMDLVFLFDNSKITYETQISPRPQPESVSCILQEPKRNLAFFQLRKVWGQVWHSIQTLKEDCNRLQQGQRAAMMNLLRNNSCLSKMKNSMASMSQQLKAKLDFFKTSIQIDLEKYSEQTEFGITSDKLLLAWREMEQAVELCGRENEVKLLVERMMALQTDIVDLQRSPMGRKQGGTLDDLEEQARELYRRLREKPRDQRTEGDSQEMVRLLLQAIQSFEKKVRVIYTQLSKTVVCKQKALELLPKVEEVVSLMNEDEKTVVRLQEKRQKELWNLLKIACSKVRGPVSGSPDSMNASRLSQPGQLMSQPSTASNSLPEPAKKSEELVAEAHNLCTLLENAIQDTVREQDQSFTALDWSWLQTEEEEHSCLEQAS
Experimental: as §1

SgK085 = target: T4, SgK085 (Homo sapiens, UniProt Q86YV6); conditions: read-out: Tm shift SgK085
T4 sequence (Q86YV6 1-388): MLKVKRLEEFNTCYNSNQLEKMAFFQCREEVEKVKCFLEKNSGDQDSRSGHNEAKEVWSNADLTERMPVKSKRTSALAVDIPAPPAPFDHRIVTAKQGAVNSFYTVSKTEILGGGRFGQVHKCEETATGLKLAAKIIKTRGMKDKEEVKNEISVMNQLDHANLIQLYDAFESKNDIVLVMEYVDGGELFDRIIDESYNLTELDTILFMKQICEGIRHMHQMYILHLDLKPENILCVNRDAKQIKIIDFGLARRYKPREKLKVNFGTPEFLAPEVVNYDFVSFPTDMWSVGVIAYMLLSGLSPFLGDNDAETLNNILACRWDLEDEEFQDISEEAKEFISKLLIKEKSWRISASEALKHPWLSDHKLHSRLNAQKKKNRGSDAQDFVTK
Experimental: as §1

Sequence of AAK1 (Q2M2I8 whole entry): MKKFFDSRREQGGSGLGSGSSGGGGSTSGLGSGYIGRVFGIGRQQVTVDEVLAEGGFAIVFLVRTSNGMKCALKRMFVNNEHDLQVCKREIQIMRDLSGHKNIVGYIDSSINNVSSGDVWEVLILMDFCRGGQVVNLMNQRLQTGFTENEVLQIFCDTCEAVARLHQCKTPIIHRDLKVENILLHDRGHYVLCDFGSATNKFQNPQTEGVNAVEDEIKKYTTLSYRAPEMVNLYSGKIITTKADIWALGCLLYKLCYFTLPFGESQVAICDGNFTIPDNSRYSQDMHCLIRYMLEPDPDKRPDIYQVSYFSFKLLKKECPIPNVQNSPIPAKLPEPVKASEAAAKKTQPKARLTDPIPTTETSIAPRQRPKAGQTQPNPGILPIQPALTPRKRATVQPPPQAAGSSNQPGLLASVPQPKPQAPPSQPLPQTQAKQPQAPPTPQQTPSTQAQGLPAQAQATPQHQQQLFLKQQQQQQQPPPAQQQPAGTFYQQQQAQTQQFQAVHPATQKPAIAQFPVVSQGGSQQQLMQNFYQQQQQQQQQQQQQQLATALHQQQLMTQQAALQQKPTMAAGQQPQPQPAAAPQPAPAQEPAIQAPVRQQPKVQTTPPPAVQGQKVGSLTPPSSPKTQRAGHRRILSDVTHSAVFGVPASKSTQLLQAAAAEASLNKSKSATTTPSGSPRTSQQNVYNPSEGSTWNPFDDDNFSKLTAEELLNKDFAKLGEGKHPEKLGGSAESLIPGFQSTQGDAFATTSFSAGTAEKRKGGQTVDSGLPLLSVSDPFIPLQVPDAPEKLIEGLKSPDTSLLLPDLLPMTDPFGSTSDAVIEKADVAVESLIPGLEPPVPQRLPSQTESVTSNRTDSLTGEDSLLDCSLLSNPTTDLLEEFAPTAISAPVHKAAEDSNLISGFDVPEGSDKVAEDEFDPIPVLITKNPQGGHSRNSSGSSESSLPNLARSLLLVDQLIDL

ΔTm at 10 µM (PKD2; inhibitor 10 μM) [°C]	ΔTm at 10 µM (AAK1; inhibitor 10 μM) [°C]	ΔTm at 10 µM (VRK1; inhibitor 10 μM) [°C]	ΔTm at 10 µM (IKKb; inhibitor 10 μM) [°C]	ΔTm at 10 µM (SgK085; inhibitor 10 μM) [°C]	Structure (SMILES)	ΔTm at 10 µM (PKD2) [°C]	ΔTm at 10 µM (AAK1) [°C]	ΔTm at 10 µM (VRK1) [°C]	ΔTm at 10 µM (IKKb) [°C]	ΔTm at 10 µM (SgK085) [°C]
					CCOC(=O)c1c(C(C#N)=CN)c2ccc(Cl)c(Cl)c2n1C (mixture of isomers) [KH-CB20, (E/Z)-Ethyl 3-(2-Amino-1-Cyanovinyl)-6,7-Dichloro-1-Methyl-1H-Indole-2-Carboxylate]	-0.2	1.3	0.2	0.1	4.5
0	0.3	0.2	0.6	0.4	CCOC(=O)c1c(C(C#N)=CN(C)C)c2ccc(Cl)c(Cl)c2n1C (mixture of isomers) [compound 2, (E/Z)-Ethyl 6,7-Dichloro-3-[1-Cyano-2-(Dimethylamino)Vinyl]-1-Methyl-1H-Indole-2-Carboxylate]					
					CCOC(=O)c1c(/C(C#N)=C\N)c2ccc(Cl)c(Cl)c2n1C [KH-CB19, (E)-Ethyl 3-(2-Amino-1-Cyanovinyl)-6,7-Dichloro-1-Methyl-1H-Indole-2-Carboxylate]	0.1	1.3	0	-0.1	4.1
0.1	1.4	-0.4	0.5	2.9	Cn1c2c(Cl)c(Cl)ccc2c2c(C#N)c[nH]c(=O)c21 [compound 3, 7,8-Dichloro-9-Methyl-1-Oxo-2,9-Dihydro-1H-Pyrido[3,4-b]Indole-4-Carbonitrile]					

Structure (SMILES)	ΔTm at 10 µM (PKD2; inhibitor 10 μM) [°C]	ΔTm at 10 µM (AAK1; inhibitor 10 μM) [°C]	ΔTm at 10 µM (VRK1; inhibitor 10 μM) [°C]	ΔTm at 10 µM (IKKb; inhibitor 10 μM) [°C]	ΔTm at 10 µM (SgK085; inhibitor 10 μM) [°C]	ΔTm at 10 µM (PKD2) [°C]	ΔTm at 10 µM (AAK1) [°C]	ΔTm at 10 µM (VRK1) [°C]	ΔTm at 10 µM (IKKb) [°C]	ΔTm at 10 µM (SgK085) [°C]
NC1=NC(=O)/C(=C2\CCNC(=O)c3[nH]c(Br)cc32)N1 [Hymenialdisine, hymenialdisine, reference compound]	0.8	2.7	2	0.7	2.7					
